Laboratory results: patent EP0643964A2 (priority 1993, dated 1995)
“And” between values parts separate entries of the source, which are not always exact repeats. Equal values may be shown once. Read-outs that look alike come from different tables or passages of the source.

How the values were obtained:
canine parvovirus (CPV) = format: in vivo, dogs; settings: for Viral titers (hemagglutination): Treated group (A): 5 ml 2% lidocaine i.v. twice a day 2 days; for Viral titers of enteric homogenates: Treated group (A), titers obtained on Vero cells
herpes simplex = assay: Evolution of recidivant periorificial herpes simplex infection in volunteers; format: in vivo, human
Procedure: Patients were divided into 3 groups: one of the groups (n=4) received acyclovir by oral route and topical applications of the same drug. […] Experiments began with the appearance of the next episode of herpes, just in the moment when vesicles appeared.
All these patients were controlled monthly during the following 4 months. During this time, group A patients presented episodes with a pattern similar to that they had before the experiment was performed. […] The remaining two presented an episode of herpes 2.8 and 3.3 months later.

[1] = tested on: EL4 h-2^b murine T-Lymphoma; assay: In vitro cell growth, EL4 seeded petri dishes (Trypan blue count); format: cell-based; settings: for Cells Alive ± STD: 72 hours
Procedure: EL4 h-2^b murine T-Lymphoma (2x10⁶ cells) and P815 H-2^d mastocytoma cells (2x10⁶ cells) (kindly provided by Prof. Gideon Berke at the Weizmann Institute of Sciences, Rehovot, Israel) suspended in 2 ml RPMI-HEPES supplemented with […] and 10% fetal calf serum (FCS) were seeded in every one of 10 petri dishes for each of five groups for the EL4 cells and two groups for the P815 cells. […] Group E dishes were co-cultivated with 0.1 ml RPMI-HEPES alone.
Petri dishes were incubated for 72 hours at 37°C in 5% CO₂ atmosphere. The cells harvested from the petri dishes were then centrifuged, diluted with 1% Trypan blue and counted on a Neubauer chamber.

M3 tumor = assay: M3 transplanted mice, tumor area (lidocaine and epidoxorrubicine); format: in vivo
[2] = herpes simplex episode, ACV oral+topical, lidocaine 5 ml 2% i.v. twice a day 2 days
[3] = Mus musculus, 72 h, read-out: I/C: Percentual increment over control growth

SMILES: CCN(CC)CC(=O)Nc1c(C)cccc1C [lidocaine]
- Mortality (canine parvovirus (CPV); CPV infected dogs, group A (treated), all controls died by 60 hours): no mortality
- Viral titers (hemagglutination) (canine parvovirus (CPV); 12 hrs. after first signs): 0 inverse of the last dilution which agglutinated sheep red cells
- Viral titers (hemagglutination) (canine parvovirus (CPV); 24 hrs.): 16 inverse of the last dilution which agglutinated sheep red cells
- Viral titers (hemagglutination) (canine parvovirus (CPV); 36 hrs.): 320 inverse of the last dilution which agglutinated sheep red cells
- Viral titers (hemagglutination) (canine parvovirus (CPV); 48 hrs.): 320 inverse of the last dilution which agglutinated sheep red cells
- Viral titers (hemagglutination) (canine parvovirus (CPV); 60 hrs.): 160 inverse of the last dilution which agglutinated sheep red cells
- Viral titers (hemagglutination) (canine parvovirus (CPV); 72 hrs.): 40 inverse of the last dilution which agglutinated sheep red cells
- Viral titers (hemagglutination) (canine parvovirus (CPV); 84 hrs.): 40 inverse of the last dilution which agglutinated sheep red cells
- Viral titers (hemagglutination) (canine parvovirus (CPV); 96 hrs.): 40 inverse of the last dilution which agglutinated sheep red cells
- Viral titers of enteric homogenates (canine parvovirus (CPV); 12 hrs.): 2.1 x 10^2 TCID₅₀/ml
- Viral titers of enteric homogenates (canine parvovirus (CPV); 24 hrs.): 0.1 x 10^4 TCID₅₀/ml
- Viral titers of enteric homogenates (canine parvovirus (CPV); 36 hrs.): 0.5 x 10^7 TCID₅₀/ml
- Viral titers of enteric homogenates (canine parvovirus (CPV); 48 hrs.): 0.3 x 10^7 TCID₅₀/ml
- Viral titers of enteric homogenates (canine parvovirus (CPV); 60 hrs.): 2.3 x 10^5 TCID₅₀/ml
- Viral titers of enteric homogenates (canine parvovirus (CPV); 72 hrs.): 6.3 x 10^4 TCID₅₀/ml
- Viral titers of enteric homogenates (canine parvovirus (CPV); 84 hrs.): 5.8 x 10^4 TCID₅₀/ml
- Viral titers of enteric homogenates (canine parvovirus (CPV); 96 hrs.): 6.0 x 10^4 TCID₅₀/ml
- Signs of the disease (canine parvovirus (CPV); group A, after 48 hours from the beginning of treatment): none of the animals showed signs of the disease
- Histological aspect of enteric mucosa (canine parvovirus (CPV); group A, by 72 hours post-treatment): normal histological aspect
- Pain (herpes simplex; Group B, by 48 hours after treatment was begun): no pain existed
- Vesicle evolution (herpes simplex; Group B, lidocaine i.v. at appearance of vesicles): Neither rupture of vesicles nor crust formation was found
- Duration of lesions (herpes simplex; [2]): 4.5 days
- Duration of symptoms (herpes simplex; [2]): 2 days
- FIRST EPISODE AFTER TREATMENT (herpes simplex; individual patients, followed monthly for 4 months): 84 days and 94 days
- patients who did not present another episode of the disease (herpes simplex; patients who received lidocaine (groups B and C), 4 months follow-up): 4 of 6
- time to next episode of herpes (herpes simplex; the remaining two lidocaine patients): 2.8 months and 3.3 months
- Cells Alive ± STD ([1]; Group A, 0.1 ml 2% lidocaine in 2 ml, 2 millions seeded, control 5.92E+06): 5.16E+06 ± 0.04 millions of cells
- Dead cells ([1]; Group A, 2% lidocaine, control 2.08E+06): 2.78E+06
- Cells Alive ± STD ([1]; Group B, 0.1 ml 0.5% lidocaine): 5.90E+06 ± 0.03 millions of cells
- Dead cells ([1]; Group B, 0.5% lidocaine): 1.64E+06
- Dead cells ([1]; Group C, 0.05% lidocaine): 1.52E+06
- Cells Alive ± STD ([1]; Group C, 0.1 ml 0.05% lidocaine): 5.46E+06 ± 0.01 millions of cells
- Dead cells ([1]; Group D, 0.005% lidocaine): 1.12E+06
- Cells Alive ± STD ([1]; Group D, 0.1 ml 0.005% lidocaine): 3.48E+06 ± 0.02 millions of cells
- inhibition at 0.005 % [1, 3]: 41.2%
- inhibition at 0.05 % [1, 3]: 7.77%
- inhibition at 0.5 % [1, 3]: 0.34%
- inhibition at 2 % [1, 3]: 12.8%
- cytotoxicity at 2 % ([1]; Mus musculus, EL4, 72 h, read-out: amount of dead cells): 35%
- amount of dead cells ([1]; groups B to E (0.5%, 0.05%, 0.005% lidocaine and control), 4320 min): 20-25%
- Area (tumor) (M3 tumor; day 7 p-t (day 0), lidocaine 0.1 ml 0.05% every 7 days, epidoxorrubicine 0.125 ml 0.2% every 7 days, combination: lidocaine 2 days after epidoxorrubicine): 0.46
- I/Ø: Percentual increment over tumor in day 0 (day 7 p-t) (M3 tumor; day 10 p-t, saline control 103.47): 18.75%
- Area (tumor) (M3 tumor; day 12 p-t, regimens as Table 5 footnotes, saline control 1.56): 0.70
- I/Ø: Percentual increment over tumor in day 0 (day 7 p-t) (M3 tumor; day 12 p-t, saline control 245.61): 51.56%
- Area (tumor) (M3 tumor; day 14 p-t, regimens as Table 5 footnotes, saline control 2.06): 0.96
- I/Ø: Percentual increment over tumor in day 0 (day 7 p-t) (M3 tumor; day 14 p-t, saline control 357.57): 107.81%
- Area (tumor) (M3 tumor; day 16 p-t, regimens as Table 5 footnotes, saline control 2.78): 1.11
- I/Ø: Percentual increment over tumor in day 0 (day 7 p-t) (M3 tumor; day 16 p-t, saline control 516.74): 142.19%
- Area (tumor) (M3 tumor; day 18 p-t, regimens as Table 5 footnotes, saline control 3.61): 1.38
- Area (tumor) (M3 tumor; day 21 p-t, regimens as Table 5 footnotes, saline control 4.61): 1.93
- Area (tumor) (M3 tumor; day 23 p-t, regimens as Table 5 footnotes, saline control 5.49): 2.90
- Area (tumor) (M3 tumor; day 25 p-t, regimens as Table 5 footnotes, saline control 6.24): 3.57
- I/Ø: Percentual increment over tumor in day 0 (day 7 p-t) (M3 tumor; day 25 p-t, saline control 1286.33): 676.56%
